In one assay the target is unphosphorylated-BTK kinase domain (UP-BTK), GST-tagged human BTK (389-659aa) (Homo sapiens (Human), UniProt Q06187). Nature of the assay: BTK kinase Lanthascreen binding assay. To be noted: unphosphorylated-BTK kinase domain, 50 nM Tracer 236, 60 minutes; pIC50 = negative log of the IC50 in molar. In outline:
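Values are pIC50, i.e. negative log of IC50 in molar, derived from concentration–response fitting. Each compound competes with a fluorescently labelled tracer for the unphosphorylated kinase domain.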
On the technique in general: Time-resolved FRET reads energy transfer from a long-lived donor to a nearby acceptor.
Sequence of unphosphorylated-BTK kinase domain (UP-BTK), GST-tagged human BTK (389-659aa) (Q06187 389-659): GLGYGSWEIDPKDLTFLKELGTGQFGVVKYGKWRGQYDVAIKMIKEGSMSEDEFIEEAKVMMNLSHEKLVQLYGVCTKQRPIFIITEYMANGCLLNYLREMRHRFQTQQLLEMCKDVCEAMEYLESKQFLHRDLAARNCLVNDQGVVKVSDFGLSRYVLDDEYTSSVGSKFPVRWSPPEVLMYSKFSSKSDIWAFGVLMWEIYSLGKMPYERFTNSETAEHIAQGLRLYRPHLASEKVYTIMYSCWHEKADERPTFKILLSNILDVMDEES
As to `Cc1cc(Oc2ccccc2)ccc1N1C(=O)Nc2c(C(=O)N[C@@H]3CCCN(C(=O)CN4CCCCC4)C3)sc3nccc1c23` [Example 393, (R)-5-(2-Methyl-4-phenoxyphenyl)-4-oxo-N-(1-(2-(piperidin-1-yl)acetyl)piperidin-3-yl)-4,5-dihydro-3H-1-thia-3,5,8-triazaacenaphthylene-2-carboxamide], the “BTK_I_binding pIC50” value was determined as 6.8.

Take `Cc1cc(Oc2ccccc2)ccc1N1C(=O)Nc2c(C(=O)N[C@@H]3CCCN(C(=O)CN4CCOCC4)C3)sc3nccc1c23` [Example 394, (R)-5-(2-Methyl-4-phenoxyphenyl)-N-(1-(2-morpholinoacetyl)piperidin-3-yl)-4-oxo-4,5-dihydro-3H-1-thia-3,5,8-triazaacenaphthylene-2-carboxamide]: the “BTK_I_binding pIC50” value was found to be 6.8.

For `Cc1cc(Oc2ccccc2)ccc1N1C(=O)Nc2c(C(=O)N[C@@H]3CCN(C(=O)CCl)C3)sc3nccc1c23` [Example 395, (R)—N-(1-(2-Chloroacetyl)pyrrolidin-3-yl)-5-(2-methyl-4-phenoxyphenyl)-4-oxo-4,5-dihydro-3H-1-thia-3,5,8-triazaacenaphthylene-2-carboxamide], the “BTK_I_binding pIC50” value is 8.0.

Regarding `Cc1cc(Oc2ccccc2)ccc1N1C(=O)Nc2c(C(=O)N[C@@H]3CCCN(C(=O)CCl)C3)sc3nccc1c23` [Example 396, (R)—N-(1-(2-Chloroacetyl)piperidin-3-yl)-5-(2-methyl-4-phenoxyphenyl)-4-oxo-4,5-dihydro-3H-1-thia-3,5,8-triazaacenaphthylene-2-carboxamide], the “BTK_I_binding pIC50” value is listed as 7.8.

Turning to `C=CC(=O)N1CCC[C@@H](NC(=O)c2sc3nccc4c3c2NC(=O)N4c2ccc(-c3cccs3)cc2)C1` [Example 397, (R)—N-(1-Acryloylpiperidin-3-yl)-4-oxo-5-(4-(thiophen-2-yl)phenyl)-4,5-dihydro-3H-1-thia-3,5,8-triazaacenaphthylene-2-carboxamide], the “BTK_I_binding pIC50” value came to 6.4. Regarding `CC(C)Oc1ccc(N2C(=O)Nc3c(C(=O)N[C@@H]4CCCN(C(=O)/C(C#N)=C/C5CC5)C4)sc4nccc2c34)cc1` [Example 399, (R,E)-N-(1-(2-Cyano-3-cyclopropylacryloyl)piperidin-3-yl)-5-(4-isopropoxyphenyl)-4-oxo-4,5-dihydro-3H-1-thia-3,5,8-triazaacenaphthylene-2-carboxamide], the “BTK_I_binding pIC50” value came to 7.5.

As for `C=CC(=O)N1CCC[C@@H](NC(=O)c2sc3nccc4c3c2NC(=O)N4c2ccc(OC(C)C)cc2)C1` [Example 400, (R)—N-(1-Acryloylpiperidin-3-yl)-5-(4-isopropoxyphenyl)-4-oxo-4,5-dihydro-3H-1-thia-3,5,8-triazaacenaphthylene-2-carboxamide], the “BTK_I_binding pIC50” value was 6.9. Same read-out and setting: as for `C/C(=C\C1CC1)C(=O)N1CCC[C@@H](NC(=O)c2sc3nccc4c3c2NC(=O)N4c2ccc(Oc3ccccc3)cc2C)C1` [Example 401, (R,E)-N-(1-(3-Cyclopropyl-2-methylacryloyl)piperidin-3-yl)-5-(2-methyl-4-phenoxyphenyl)-4-oxo-4,5-dihydro-3H-1-thia-3,5,8-triazaacenaphthylene-2-carboxamide], the figure is 6.5; as for `Cc1cc(Oc2ccccc2)ccc1N1C(=O)Nc2c(C(=O)N[C@@H]3CCCN(C(=O)/C=C/CN4CCOCC4)C3)sc3nccc1c23` [Example 403, (R,E)-5-(2-Methyl-4-phenoxyphenyl)-N-(1-(4-morpholinobut-2-enoyl)piperidin-3-yl)-4-oxo-4,5-dihydro-3H-1-thia-3,5,8-triazaacenaphthylene-2-carboxamide], 6.4. For `C=CC(=O)N1CCC[C@@H](NC(=O)c2sc3nccc4c3c2NC(=O)N4c2ccc3sccc3c2)C1` [Example 404, (R)—N-(1-Acryloylpiperidin-3-yl)-5-(benzo[b]thiophen-5-yl)-4-oxo-4,5-dihydro-3H-1-thia-3,5,8-triazaacenaphthylene-2-carboxamide], the “BTK_I_binding pIC50” value was 6.1.

In the case of `CCC(=O)N1CCC[C@@H](NC(=O)c2sc3nccc4c3c2NC(=O)N4c2ccc(OC(C)C)cc2)C1` [Example 406, (R)-5-(4-Isopropoxyphenyl)-4-oxo-N-(1-propionylpiperidin-3-yl)-4,5-dihydro-3H-1-thia-3,5,8-triazaacenaphthylene-2-carboxamide], the “BTK_I_binding pIC50” value stood at 5.2. On the same count and under the same terms, the same measure for `O=C(N[C@@H]1CCCNC1)c1sc2nccc3c2c1NC(=O)N3c1ccc(-c2cccs2)cc1` [Example 407, (R)-4-Oxo-N-(piperidin-3-yl)-5-(4-(thiophen-2-yl)phenyl)-4,5-dihydro-3H-1-thia-3,5,8-triazaacenaphthylene-2-carboxamide]: 5.1.

Consider `C=CC(=O)N1CCC[C@@H](NC(=O)c2sc3nccc4c3c2NC(=O)N4Cc2ccc(Oc3ccccc3)cc2)C1` [Example 408, (R)—N-(1-Acryloylpiperidin-3-yl)-4-oxo-5-(4-phenoxybenzyl)-4,5-dihydro-3H-1-thia-3,5,8-triazaacenaphthylene-2-carboxamide], for which the “BTK_I_binding pIC50” value was determined as 5.1. The same measure, in the same setting: as for `CN1CC[C@@H](NC(=O)c2sc3nccc4c3c2NC(=O)N4Cc2ccc(Oc3ccccc3)cc2)C1` [Example 409, (R)—N-(1-Methylpyrrolidin-3-yl)-4-oxo-5-(4-phenoxybenzyl)-4,5-dihydro-3H-1-thia-3,5,8-triazaacenaphthylene-2-carboxamide], the figure is 5.0. Take `O=C(N[C@@H]1CCCNC1)c1sc2nccc3c2c1NC(=O)N3c1ccc2sccc2c1` [Example 410, (R)-5-(Benzo[b]thiophen-5-yl)-4-oxo-N-(piperidin-3-yl)-4,5-dihydro-3H-1-thia-3,5,8-triazaacenaphthylene-2-carboxamide]: the “BTK_I_binding pIC50” value was determined as 5.0. In the case of `CN1CCC[C@@H](NC(=O)c2sc3nccc4c3c2NC(=O)N4Cc2ccc(Oc3ccccc3)cc2)C1` [Example 411, (R)—N-(1-Methylpiperidin-3-yl)-4-oxo-5-(4-phenoxybenzyl)-4,5-dihydro-3H-1-thia-3,5,8-triazaacenaphthylene-2-carboxamide], the “BTK_I_binding pIC50” value is less than 5.

Take `O=C(N[C@@H]1CCCNC1)c1sc2nccc3c2c1NC(=O)N3Cc1ccc(Oc2ccccc2)cc1` [Example 412, (R)-4-Oxo-5-(4-phenoxybenzyl)-N-(piperidin-3-yl)-4,5-dihydro-3H-1-thia-3,5,8-triazaacenaphthylene-2-carboxamide]: the “BTK_I_binding pIC50” value is less than 5. With `C=CC(=O)N1CCC[C@@H](NC(=O)c2sc3nccc4c3c2NC(=O)N4c2ccc(OC(F)(F)F)cc2C)C1` [Example 414, (R)—N-(1-Acryloylpiperidin-3-yl)-5-(2-methyl-4-(trifluoromethoxy)phenyl)-4-oxo-4,5-dihydro-3H-1-thia-3,5,8-triazaacenaphthylene-2-carboxamide], the “BTK_I_binding pIC50” value turned out to be 7.4. Take `C=CC(=O)N1CCC[C@@H](NC(=O)c2sc3nccc4c3c2NC(=O)N4c2ccc(OC(F)(F)F)cc2)C1` [Example 416, (R)—N-(1-Acryloylpiperidin-3-yl)-4-oxo-5-(4-(trifluoromethoxy)phenyl)-4,5-dihydro-3H-1-thia-3,5,8-triazaacenaphthylene-2-carboxamide]: the “BTK_I_binding pIC50” value was determined as 6.7. Same read-out and setting: as for `C=CC(=O)N1CCC[C@@H](NC(=O)c2sc3nccc4c3c2NC(=O)N4c2ccc3ccccc3c2)C1` [Example 419, (R)—N-(1-Acryloylpiperidin-3-yl)-5-(naphthalen-2-yl)-4-oxo-4,5-dihydro-3H-1-thia-3,5,8-triazaacenaphthylene-2-carboxamide], the figure is 5.7.

`C=CC(=O)N1CCC[C@@H](NC(=O)c2sc3nccc4c3c2NC(=O)N4c2ccn(Cc3ccccc3)n2)C1` [Example 420, (R)—N-(1-Acryloylpiperidin-3-yl)-5-(1-benzyl-1H-pyrazol-3-yl)-4-oxo-4,5-dihydro-3H-1-thia-3,5,8-triazaacenaphthylene-2-carboxamide]: the “BTK_I_binding pIC50” value was found to be 6.0. On the same count and under the same terms, as for `C=CC(=O)N1CCC[C@@H](NC(=O)c2sc3nccc4c3c2NC(=O)N4c2cccc(-c3ccccc3)c2)C1` [Example 421, (R)-5-([1,1′-Biphenyl]-3-yl)-N-(1-acryloylpiperidin-3-yl)-4-oxo-4,5-dihydro-3H-1-thia-3,5,8-triazaacenaphthylene-2-carboxamide], the figure is 7.9.

With `C=CC(=O)N1CCC[C@@H](NC(=O)c2sc3nccc4c3c2NC(=O)N4c2ccc(Cc3ccccc3)cc2)C1` [Example 422, (R)—N-(1-Acryloylpiperidin-3-yl)-5-(4-benzylphenyl)-4-oxo-4,5-dihydro-3H-1-thia-3,5,8-triazaacenaphthylene-2-carboxamide], the “BTK_I_binding pIC50” value is reported as 7.5.

As for `C=CC(=O)N1CCC[C@@H](NC(=O)c2sc3nccc4c3c2NC(=O)N4c2ccc(-c3ccccc3)cc2)C1` [Example 423, (R)-5-([1,1′-Biphenyl]-4-yl)-N-(1-acryloylpiperidin-3-yl)-4-oxo-4,5-dihydro-3H-1-thia-3,5,8-triazaacenaphthylene-2-carboxamide], the “BTK_I_binding pIC50” value came to 6.3.

The assay is the same for the next values; noted with them: unphosphorylated-BTK kinase domain, 50 nM Tracer 236, 60 minutes; pIC50 = negative log of the IC50 in molar; read-out: BTK_I_binding pIC50 (converted).
As to `CC(C)Oc1ccc(N2C(=O)Nc3c(C(=O)N[C@@H]4CCCNC4)sc4nccc2c34)cc1` [Example 405, (R)-5-(4-Isopropoxyphenyl)-4-oxo-N-(piperidin-3-yl)-4,5-dihydro-3H-1-thia-3,5,8-triazaacenaphthylene-2-carboxamide], the IC50 was 3.16 µM. As for `Cc1cc(OC(F)(F)F)ccc1N1C(=O)Nc2c(C(=O)N[C@@H]3CCCNC3)sc3nccc1c23` [Example 413, (R)-5-(2-Methyl-4-(trifluoromethoxy)phenyl)-4-oxo-N-(piperidin-3-yl)-4,5-dihydro-3H-1-thia-3,5,8-triazaacenaphthylene-2-carboxamide], the IC50 was 2.51 µM. `O=C(N[C@@H]1CCCNC1)c1sc2nccc3c2c1NC(=O)N3c1ccc(OC(F)(F)F)cc1` [Example 415, (R)-4-Oxo-N-(piperidin-3-yl)-5-(4-(trifluoromethoxy)phenyl)-4,5-dihydro-3H-1-thia-3,5,8-triazaacenaphthylene-2-carboxamide]: the IC50 was 6.31 µM.
